Measurements as given in patent US20230085307A1, “PYRIDAZINONE COMPOUND AND HERBICIDE” (NISSAN CHEMICAL CORPORATION, priority 2019, published 2023).

How the values were obtained:
barnyard grass [1] = assay: Test Example 3: herbicidal effect by foliage application, Wagner pot (Table 18, symbol H); type: in vivo, barnyard grass (Echinochloa crus-galli); settings: amount of applied herbicide 320 g/ha
How it was run: (§1)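 Plants were sown in alluvial soil held under 0.1–0.5 cm standing water and grown 14 days in a greenhouse at 25–30 °C. An emulsifiable formulation, water-diluted to the set dose, was then sprayed onto the foliage, and effects were scored three weeks later using previously defined criteria.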

Chinese sprangletop = assay: Test Example 3: herbicidal effect by foliage application, Wagner pot (Table 18, symbol D); type: in vivo, chinese sprangletop (Leptochloa chinensis); settings: amount of applied herbicide 320 g/ha
How it was run: as §1

rice flat sedge = assay: Test Example 3: herbicidal effect by foliage application, Wagner pot (Table 18, symbol E); type: in vivo, rice flat sedge (Cyperus iria); settings: amount of applied herbicide 320 g/ha
How it was run: as §1

southern crabgrass [2] = assay: Test Example 4: herbicidal effect by soil treatment (Table 19, symbol F); type: in vivo, southern crabgrass (Digitaria ciliaris); settings: amount of applied herbicide 320 g/ha
Description: (§2) [Test Example 4] Herbicidal Effect Test by Soil Treatment
(§3) Sterilized diluvial soil was placed in a plastic box having a length of 21 cm, a width of 13 cm, and a depth of 7 cm. The seeds of each of southern crabgrass, green foxtail, barnyard grass, wild oat, blackgrass, Italian ryegrass, windgrass, velvetleaf, redroot pigweed, lambsquarters, chickweed, false cleavers, persian speedwell, corn, soybean, rice, wheat, beet, and rapeseed were sowed in a spot-like manner and covered with the soil having a thickness of about 1.5 cm. Subsequently, the emulsion agent of the compound of the present invention prepared according to Formulation Example 2 was diluted with water so as to achieve a predetermined herbicide amount, and the diluted emulsion agent was uniformly applied to the surface of the soil with a small-sized spray. The plastic box was placed in a greenhouse at 25° C. to 30° C. for growth of the plants. Three weeks after the herbicide application, the effect of the herbicide on each plant was evaluated according to the criteria of Test Example 1.

green foxtail [3] = assay: Test Example 4: herbicidal effect by soil treatment (Table 19, symbol G); type: in vivo, green foxtail (Setaria viridis); settings: amount of applied herbicide 320 g/ha
Description: as §2, §3

barnyard grass [4] = assay: Test Example 4: herbicidal effect by soil treatment (Table 19, symbol H); type: in vivo, barnyard grass (Echinochloa crus-galli); settings: amount of applied herbicide 320 g/ha
Description: as §2, §3

velvetleaf [5] = assay: Test Example 4: herbicidal effect by soil treatment (Table 19, symbol M); type: in vivo, velvetleaf (Abutilon theophrasti); settings: amount of applied herbicide 320 g/ha
Description: as §2, §3

redroot pigweed [6] = assay: Test Example 4: herbicidal effect by soil treatment (Table 19, symbol N); type: in vivo, redroot pigweed (Amaranthus retroflexus); settings: amount of applied herbicide 320 g/ha
Description: as §2, §3

lambsquarters [7] = assay: Test Example 4: herbicidal effect by soil treatment (Table 19, symbol O); type: in vivo, lambsquarters (Chenopodium album); settings: amount of applied herbicide 320 g/ha
Description: as §2, §3

southern crabgrass [8] = assay: Test Example 5: herbicidal effect by foliage application, plastic box (Table 20, symbol F); type: in vivo, southern crabgrass (Digitaria ciliaris); settings: foliage application, 320 g/ha, three weeks after application
How it was run: (§4)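 Post-emergence foliar test in sterilized diluvial soil. Compound applied as water-diluted emulsion at a predetermined rate to 14-day-old plants; evaluation at three weeks.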

green foxtail [9] = assay: Test Example 5: herbicidal effect by foliage application, plastic box (Table 20, symbol G); type: in vivo, green foxtail (Setaria viridis); settings: foliage application, 320 g/ha, three weeks after application
How it was run: as §4

barnyard grass [10] = assay: Test Example 5: herbicidal effect by foliage application, plastic box (Table 20, symbol H); type: in vivo, barnyard grass (Echinochloa crus-galli); settings: foliage application, 320 g/ha, three weeks after application
How it was run: as §4

velvetleaf [11] = assay: Test Example 5: herbicidal effect by foliage application, plastic box (Table 20, symbol M); type: in vivo, velvetleaf (Abutilon theophrasti); settings: foliage application, 320 g/ha, three weeks after application
How it was run: as §4

redroot pigweed [12] = assay: Test Example 5: herbicidal effect by foliage application, plastic box (Table 20, symbol N); type: in vivo, redroot pigweed (Amaranthus retroflexus); settings: foliage application, 320 g/ha, three weeks after application
How it was run: as §4

lambsquarters [13] = assay: Test Example 5: herbicidal effect by foliage application, plastic box (Table 20, symbol O); type: in vivo, lambsquarters (Chenopodium album); settings: foliage application, 320 g/ha, three weeks after application
How it was run: as §4

CC(CSc1ccc(-c2sc3ccc(F)cc3c2-c2c(O)c(C)nn(C)c2=O)cc1)=NO [2-452]
herbicidal effect on H: barnyard grass (barnyard grass [1]): 5 (Herbicidal rate of 90% or more (almost completely withered)) | herbicidal effect on D: Chinese sprangletop (Chinese sprangletop): 0 (Herbicidal rate of 5% or less (almost no effect)) | herbicidal effect on E: rice flat sedge (rice flat sedge): 5 (Herbicidal rate of 90% or more (almost completely withered)) | herbicidal effect, F: southern crabgrass (southern crabgrass [2]): 0 (Herbicidal rate of 5% or less (almost no effect)) | herbicidal effect, G: green foxtail (green foxtail [3]): 0 (Herbicidal rate of 5% or less (almost no effect)) | herbicidal effect, H: barnyard grass (barnyard grass [4]): 0 (Herbicidal rate of 5% or less (almost no effect)) | herbicidal effect, M: velvetleaf (velvetleaf [5]): 0 (Herbicidal rate of 5% or less (almost no effect)) | herbicidal effect, N: redroot pigweed (redroot pigweed [6]): 5 (Herbicidal rate of 90% or more (almost completely withered)) | herbicidal effect, O: lambsquarters (lambsquarters [7]): 4 (Herbicidal rate of 70% or more and less than 90%) | F: southern crabgrass, herbicidal effect grade (southern crabgrass [8]): 3 (Herbicidal rate of 40% or more and less than 70%) | G: green foxtail, herbicidal effect grade (green foxtail [9]): 5 (Herbicidal rate of 90% or more (almost completely withered)) | H: barnyard grass, herbicidal effect grade (barnyard grass [10]): 5 (Herbicidal rate of 90% or more (almost completely withered)) | M: velvetleaf, herbicidal effect grade (velvetleaf [11]): 5 (Herbicidal rate of 90% or more (almost completely withered)) | N: redroot pigweed, herbicidal effect grade (redroot pigweed [12]): 5 (Herbicidal rate of 90% or more (almost completely withered)) | O: lambsquarters, herbicidal effect grade (lambsquarters [13]): 5 (Herbicidal rate of 90% or more (almost completely withered))

Cc1nn(C)c(=O)c(-c2c(-c3ccc(OC(F)(F)F)cc3)sc3ccc(Cl)cc23)c1O [2-457]
herbicidal effect on H: barnyard grass (barnyard grass [1]): 5 (Herbicidal rate of 90% or more (almost completely withered)) | herbicidal effect on D: Chinese sprangletop (Chinese sprangletop): 3 (Herbicidal rate of 40% or more and less than 70%) | herbicidal effect on E: rice flat sedge (rice flat sedge): 5 (Herbicidal rate of 90% or more (almost completely withered)) | herbicidal effect, F: southern crabgrass (southern crabgrass [2]): 0 (Herbicidal rate of 5% or less (almost no effect)) | herbicidal effect, G: green foxtail (green foxtail [3]): 0 (Herbicidal rate of 5% or less (almost no effect)) | herbicidal effect, H: barnyard grass (barnyard grass [4]): 0 (Herbicidal rate of 5% or less (almost no effect)) | herbicidal effect, M: velvetleaf (velvetleaf [5]): 1 (Herbicidal rate of 5% or more and less than 20%) | herbicidal effect, N: redroot pigweed (redroot pigweed [6]): 3 (Herbicidal rate of 40% or more and less than 70%) | herbicidal effect, O: lambsquarters (lambsquarters [7]): 2 (Herbicidal rate of 20% or more and less than 40%) | F: southern crabgrass, herbicidal effect grade (southern crabgrass [8]): 3 (Herbicidal rate of 40% or more and less than 70%) | G: green foxtail, herbicidal effect grade (green foxtail [9]): 3 (Herbicidal rate of 40% or more and less than 70%) | H: barnyard grass, herbicidal effect grade (barnyard grass [10]): 5 (Herbicidal rate of 90% or more (almost completely withered)) | M: velvetleaf, herbicidal effect grade (velvetleaf [11]): 3 (Herbicidal rate of 40% or more and less than 70%) | N: redroot pigweed, herbicidal effect grade (redroot pigweed [12]): 4 (Herbicidal rate of 70% or more and less than 90%) | O: lambsquarters, herbicidal effect grade (lambsquarters [13]): 5 (Herbicidal rate of 90% or more (almost completely withered))
